In ChEMBL document CHEMBL5113465, “Design, synthesis and evaluation of alpha lipoic acid derivatives to treat multiple sclerosis-associated central neuropathic pain” (Bioorg Med Chem, 2022):

Experiments:
[1] = Stability of compound in pH 6.8 intestinal enzyme-free fluid assessed as decomposition measured within 20 mins by HPLC analysis; type: ADME; conditions: buffer, pH 6.8, 20 min
[2] = Stability of compound in pH 1.5 gastric enzyme-free fluid assessed as decomposition measured within 20 mins by HPLC analysis; type: ADME; conditions: buffer, pH 1.5, 20 min
[3] = Octanol/water partition coefficient, log P of the compound by HPLC analysis; type: physicochemical
[4] = Aqueous solubility of compound; type: physicochemical
[5] = Half life in pH 1.5 gastric enzyme-free fluid assessed as parent compound remaining neutralized with 0.1 N triethylamine solution at 20 mins interval for 3 hrs by HPLC analysis; type: ADME
[6] = Half life in pH 6.8 intestinal enzyme-free fluid assessed as parent compound remaining neutralized with 0.1 N triethylamine solution at 20 mins interval for 3 hrs by HPLC analysis; type: ADME
[7] = Stability in mouse plasma at 1 to 500 ppm measured within 1 min by LC-MS analysis; type: ADME, cell-free; conditions: dose 1-500 ppm
[8] = Apparent permeability in human Caco-2 cells measured after 15 mins by LC-MS analysis; type: ADME, cell-based
[9] = Half life in mouse plasma at 0.1 to 50 ppm by LC-MS analysis; type: ADME, cell-free; conditions: dose 0.1-50 ppm
[10] = aqueous medium, read-out: solubility

Row | Compound | logP [3] | solubility [4, 10] [µM] | half-life [5] [h] | half-life [6] [h] | other results
1 | CN1CCN(CCOC(=O)CCCC[C@@H]2CCSS2)CC1 | – | – | > 2 | > 2 | –
2 | O=C(CCCC[C@@H]1CCSS1)OCCOCCOCCO | – | – | > 2 | > 2 | –
3 | Cl.O=C(CCCC[C@@H]1CCSS1)OCCN1CCOCC1 | – | – | – | – | solubility ([4]; buffer): Soluble; Stability [7]: Unstable
4 | Cc1oc(=O)oc1COC(=O)CCCC[C@@H]1CCSS1 | – | – | > 2 | > 2 | Papp at 0.25 h [8]: 15.9 ×10⁻⁶ cm/s
5 | O=C(CCCC[C@@H]1CCSS1)OC(CO)CO | – | – | > 2 | > 2 | –

Second part, led by results:

Row | logP [3] | solubility [4, 10] [µM] | half-life [5] [h] | half-life [6] [h] | Compound | other results
6 | 2.64 | < 10 | – | – | O=C(CCCC[C@@H]1CCSS1)OCCN1CCOCC1 | Drug degradation [1]: Active; Drug degradation [2]: Active
7 | 0.94 | < 2000 | – | – | O=C(CCCC[C@@H]1CCSS1)OC[C@H]1OC(O)[C@H](O)[C@@H](O)[C@@H]1O (some centres undefined) | –
8 | 2.03 | < 10 | > 2 | > 2 | O=C(CCCC[C@@H]1CCSS1)OCc1cc(=O)c(O)co1 | –
9 | 0.31 | > 10000 | – | – | O=C(CCCC[C@@H]1CCSS1)O[C@H]1[C@H](O)[C@@H](CO)OC(O)[C@@H]1O (some centres undefined) | half-life [9]: 1.5 h
